Data from paper PMC8286840, “Identifying SARS-CoV-2 antiviral compounds by screening for small molecule inhibitors of Nsp3 papain-like protease” (Biochemical Journal, 2021).
Counter-ions that a name gives are not always drawn. Like-named read-outs stand apart in the source and are kept apart here.

Columns and labels:
[1] = target: T1, SARS-CoV-2 PLpro (nsp3 1564–1878) (Severe acute respiratory syndrome coronavirus 2, UniProt P0DTD1); assay: biochemical; design: FRET-quenched peptide (Pro3) cleavage by PLpro, 10 min pre-incubation, slope over 20 min, normalised to no-compound control; conditions: low concentration screen, read-out: % of control remaining
[2] = target: T1, SARS-CoV-2 PLpro (nsp3 1564–1878); assay: biochemical; design: FRET-quenched peptide (Pro3) cleavage by PLpro, 10 min pre-incubation, slope over 20 min, normalised to no-compound control; conditions: high concentration screen, read-out: % of control remaining

`CCCCCCCCCCC1=C(C)C(=O)C(OC)=C(OC)C1=O` [Decylubiquinone] showed a remaining activity at 1.25 µM ([1]; Well no.=3245) of 100% and a remaining activity at 3.75 µM ([2]; Well no.=3245) of 99.1%.
Work on `O=C(O)c1ccc(-n2nc(-c3ccccc3O)nc2-c2ccccc2O)cc1` [Deferasirox] yielded a remaining activity at 1.25 µM ([1]; Well no.=8190) of 107% and a remaining activity at 3.75 µM ([2]; Well no.=8190) of 100%.
In the case of `Cc1c(O)c(=O)ccn1C` [Deferiprone], the remaining activity at 1.25 µM ([1]; Well no.=5130) is reported as 97.3% and the remaining activity at 3.75 µM ([2]; Well no.=5130) is reported as 98.7%.
`CC(=O)OCC(=O)[C@@]12N=C(C)O[C@@H]1C[C@H]1[C@@H]3CCC4=CC(=O)C=C[C@]4(C)[C@H]3[C@@H](O)C[C@@]12C` [Deflazacort] showed a remaining activity at 1.25 µM ([1]; Well no.=5566) of 103%, a remaining activity at 1.25 µM ([1]; Well no.=7613) of 102% and a remaining activity at 3.75 µM ([2]; Well no.=5566) of 104%. It also gave a remaining activity at 3.75 µM ([2]; Well no.=7613) of 97.5%.
Work on `C[C@H](CCC(=O)O)[C@H]1CC[C@H]2[C@@H]3C(=O)C[C@@H]4CC(=O)CC[C@]4(C)[C@H]3CC(=O)[C@]12C` [Dehydrocholic acid] yielded a remaining activity at 1.25 µM ([1]; Well no.=8300) of 100% and a remaining activity at 3.75 µM ([2]; Well no.=8300) of 99%.
`C=C1CC[C@H]2C(=C)CC[C@H]3C(=C)C(=O)O[C@@H]3[C@@H]12` [Dehydrocostus lactone] gave a remaining activity at 1.25 µM ([1]; Well no.=3206) of 101% and a remaining activity at 3.75 µM ([2]; Well no.=3206) of 100%.
Molecule `C[C@]12CC[C@H](O)CC1=CC[C@@H]1[C@@H]2CC[C@]2(C)C(=O)CC[C@@H]12` [Dehydroepiandrosterone] has a remaining activity at 1.25 µM ([1]; Well no.=1972) of 94.1% and a remaining activity at 3.75 µM ([2]; Well no.=1972) of 98.4%.
Molecule `CC(C)Nc1cccnc1N1CCN(C(=O)c2cc3cc(NS(C)(=O)=O)ccc3[nH]2)CC1` [Delavirdine mesylate] has a remaining activity at 1.25 µM ([1]; Well no.=1676) of 108% and a remaining activity at 3.75 µM ([2]; Well no.=1676) of 101%.
Work on `CCN1C[C@]2(COC)CC[C@H](OC)[C@@]34C1[C@]1(OCO[C@@]15C[C@H](OC)[C@H]1C[C@@H]3[C@@H]5[C@H]1OC)[C@@H](O)[C@H]24` [Delcorine] yielded a remaining activity at 1.25 µM ([1]; Well no.=3109) of 98.2% and a remaining activity at 3.75 µM ([2]; Well no.=3109) of 101%.
In the case of `CCN1C[C@]2(C)CC[C@H](OC)[C@@]34C1[C@]1(OCO[C@@]15C[C@H](OC)[C@H]1C[C@]3(O)[C@@H]5[C@H]1OC)[C@@H](OC(C)=O)[C@H]24` [Deltaline], the remaining activity at 1.25 µM ([1]; Well no.=3111) is reported as 101% and the remaining activity at 3.75 µM ([2]; Well no.=3111) is reported as 103%.
Work on `c1ccc(Cn2c(-c3ccc(OC[C@H](C4CCNCC4)n4c(-c5ccccc5)nc5ccccc54)cc3)nc3ccccc32)cc1` [Deltarasin] yielded a remaining activity at 1.25 µM ([1]; Well no.=8476) of 95.2% and a remaining activity at 3.75 µM ([2]; Well no.=8476) of 92.7%.
`CN(C)[C@@H]1C(O)=C(C(N)=O)C(=O)[C@@]2(O)C(O)=C3C(=O)c4c(O)ccc(Cl)c4[C@@H](O)[C@H]3C[C@@H]12` [Demeclocycline hydrochloride] was tested, and the remaining activity at 1.25 µM ([1]; Well no.=484) was 99.1% and the remaining activity at 3.75 µM ([2]; Well no.=484) was 96.9%.
For `COc1cc(/C=C/C(O)=C/C(=O)/C=C/c2ccc(O)cc2)ccc1O` [Demethoxycurcumin], the remaining activity at 1.25 µM ([1]; Well no.=6262) was 103% and the remaining activity at 3.75 µM ([2]; Well no.=6262) was 98.7%.
`C[C@H]1CC[C@@H]2[C@@H](C)[C@H]3[C@H](C[C@H]4[C@@H]5CC[C@H]6C[C@@H](O)CC[C@]6(C)[C@H]5CC[C@]34C)N2C1` [Demissidine] gave a remaining activity at 1.25 µM ([1]; Well no.=3202) of 104% and a remaining activity at 3.75 µM ([2]; Well no.=3202) of 107%.
For `CCCCn1c(=O)c2c(ncn2CC(C)=O)n(CCCC)c1=O` [Denbufylline], the remaining activity at 1.25 µM ([1]; Well no.=1765) was 102% and the remaining activity at 3.75 µM ([2]; Well no.=1765) was 99.8%.
With `Oc1ccc(OC2CCCCO2)cc1` (stereo not shown) [Deoxyarbutin] the remaining activity at 1.25 µM ([1]; Well no.=5166) was 103% and the remaining activity at 3.75 µM ([2]; Well no.=5166) was 101%.
`C[C@H](CCC(=O)O)[C@H]1CC[C@H]2[C@@H]3CC[C@@H]4C[C@H](O)CC[C@]4(C)[C@H]3C[C@H](O)[C@]12C` [Deoxycholic acid] gave a remaining activity at 1.25 µM ([1]; Well no.=6153) of 107%, a remaining activity at 1.25 µM ([1]; Well no.=8537) of 102% and a remaining activity at 3.75 µM ([2]; Well no.=6153) of 112%. It also gave a remaining activity at 3.75 µM ([2]; Well no.=8537) of 103%.
In the case of `Nc1ccn([C@H]2C[C@H](O)[C@@H](COP(=O)(O)OP(=O)(O)OP(=O)(O)O)O2)c(=O)n1` [Deoxycytidine triphosphate], the remaining activity at 1.25 µM ([1]; Well no.=7355) is reported as 99.9%, the remaining activity at 1.25 µM ([1]; Well no.=7870) is reported as 101% and the remaining activity at 3.75 µM ([2]; Well no.=7355) is reported as 100%. It also gave a remaining activity at 3.75 µM ([2]; Well no.=7870) of 102%.
For `CC(C)=CCCC1=CC(=O)c2c(O)ccc(O)c2C1=O` [Deoxyshikonin], the remaining activity at 1.25 µM ([1]; Well no.=3164) was 86.1% and the remaining activity at 3.75 µM ([2]; Well no.=3164) was 85.7%.
`CN(N=O)c1cc(O)ccc1O` [Dephostatin] gave a remaining activity at 1.25 µM ([1]; Well no.=392) of 97.4% and a remaining activity at 3.75 µM ([2]; Well no.=392) of 97.3%.
In the case of `Cc1cc(N)c2ccccc2[n+]1CCCCCCCCCC[n+]1c(C)cc(N)c2ccccc21` [Dequalinium dichloride], the remaining activity at 1.25 µM ([1]; Well no.=449) is reported as 101% and the remaining activity at 3.75 µM ([2]; Well no.=449) is reported as 96.8%.
For `COc1ccc(-c2cc(C(F)F)nn2-c2ccc(S(N)(=O)=O)cc2)cc1F` [Deracoxib], the remaining activity at 1.25 µM ([1]; Well no.=7408) was 106% and the remaining activity at 3.75 µM ([2]; Well no.=7408) was 102%.
Molecule `CNCCCN1c2ccccc2CCc2ccccc21` [Desipramine hydrochloride] has a remaining activity at 1.25 µM ([1]; Well no.=545) of 99.2% and a remaining activity at 3.75 µM ([2]; Well no.=545) of 101%.
`N=C(N)NCCC[C@@H](NC(=O)[C@@H]1CCCN1C(=O)[C@@H]1CSSCCC(=O)N[C@@H](Cc2ccc(O)cc2)C(=O)N[C@@H](Cc2ccccc2)C(=O)N[C@@H](CCC(N)=O)C(=O)N[C@@H](CC(N)=O)C(=O)N1)C(=O)NCC(N)=O` [Desmopressin (Acetate)] showed a remaining activity at 1.25 µM ([1]; Well no.=8153) of 103% and a remaining activity at 3.75 µM ([2]; Well no.=8153) of 96.9%.
Molecule `CC(C)=CCC[C@@H](C)[C@H]1CC[C@H]2[C@@H]3CC=C4C[C@@H](O)CC[C@]4(C)[C@H]3CC[C@]12C` [Desmosterol] has a remaining activity at 1.25 µM ([1]; Well no.=5972) of 101% and a remaining activity at 3.75 µM ([2]; Well no.=5972) of 99%.
`CC1(C)O[C@@H]2C[C@H]3[C@@H]4CCC5=CC(=O)C=C[C@]5(C)[C@H]4[C@@H](O)C[C@]3(C)[C@]2(C(=O)CO)O1` [Desonide] was tested, and the remaining activity at 1.25 µM ([1]; Well no.=5339) was 95.1%, the remaining activity at 1.25 µM ([1]; Well no.=8291) was 99.7% and the remaining activity at 3.75 µM ([2]; Well no.=5339) was 84.9%. The remaining activity at 3.75 µM ([2]; Well no.=8291) was 96%.
With `c1ccc2c(c1)CN1CCCC1=N2` [Desoxypeganine] the remaining activity at 1.25 µM ([1]; Well no.=3278) was 98% and the remaining activity at 3.75 µM ([2]; Well no.=3278) was 97.7%.
`CN(C)CC(c1ccc(O)cc1)C1(O)CCCCC1` (stereo not shown) [Desvenlafaxine] was tested, and the remaining activity at 1.25 µM ([1]; Well no.=5164) was 94.5% and the remaining activity at 3.75 µM ([2]; Well no.=5164) was 96.9%.
`Cc1cccc(Cc2c[nH]cn2)c1C` [Detomidine (hydrochloride)] showed a remaining activity at 1.25 µM ([1]; Well no.=6662) of 98.9% and a remaining activity at 3.75 µM ([2]; Well no.=6662) of 102%.
`Cc1cccc(Cc2c[nH]cn2)c1C` [Detomidine HCl] gave a remaining activity at 1.25 µM ([1]; Well no.=5062) of 103% and a remaining activity at 3.75 µM ([2]; Well no.=5062) of 105%.
`CC(=O)OCC(=O)[C@@]1(O)[C@H](C)C[C@H]2[C@@H]3CCC4=CC(=O)C=C[C@]4(C)[C@@]3(F)[C@@H](O)C[C@@]21C` [Dexamethasone (acetate)] showed a remaining activity at 1.25 µM ([1]; Well no.=6465) of 107% and a remaining activity at 3.75 µM ([2]; Well no.=6465) of 106%.
